system: RS4;11 cells; assay: Cell growth inhibition, 4-day proliferation assay (WST-8); type: cell-based; settings: Homo sapiens, 96 h; RS4;11 cells, 4 days, WST-8; read-out: RS4; 11 Cells IC50
Protocol: The effect of representative Compounds of the Disclosure on cell viability was determined in a 4-day proliferation assay. Cells were maintained in the appropriate culture medium with 10% FBS at 37° C. and an atmosphere of 5% CO2. Also, the effect of a MDM2 inhibitor (Cpd. A; see Compound Example No. 22 of U.S. Pat. No. 8,629,141) and a known MDM2 degrader (Cpd. D, see Cpd. No. 175 of WO 2017/0176957) on cell viability in various cell lines is also included in Table 5. Cpd. […] A and D. The structure of Cpd. A is:
Cells were seeded in 96-well flat bottom (Corning COSTAR, Corning, N.Y., cat #3595) at a density of 2,000-3,000 cells/well in 100 μL of culture medium. Compounds were serially diluted in the appropriate medium, and 100 μL of the diluted compounds were added to the appropriate wells of the cell plate. After the addition of compounds, the cells were incubated at 37° C. in an atmosphere of 5% CO2 for 4 days. Cell viability was determined using the WST (2-(2-methoxy-4-nitrophenyl)-3-(4-nitrophenyl)-5-(2,4-disulfophenyl)-2H-tetrazolium, monosodium salt) Cell Counting-8 Kit (Dojindo Molecular Technologies, Inc., Rockville, Md.) according to the manufacturers' instructions.
WST-8 reagent was added to each well at a final concentration of 10% (v/v), and then the plates were incubated at 37° C. for 1-2 hours for color development. The absorbance was measured at 450 nm using a SPECTRAmax PLUS plate reader (Molecular Devices, Sunnyvale, Calif.). The readings were normalized to the DMSO-treated cells and the half maximal inhibitory concentration (IC50) was calculated by nonlinear regression (four parameters sigmoid fitted with variable slope, least squares fit, and no constraint) analysis using the GraphPad Prism 5 software (GraphPad Software, La Jolla, Calif.).

Structure (SMILES)	IC50
O=C1CCC(N2Cc3c(NC4CCN(CCCNC(=O)C56CCC(NC(=O)[C@@H]7NC8(CCCCC8)[C@@]8(C(=O)Nc9cc(Cl)ccc98)[C@H]7c7cccc(Cl)c7F)(CC5)CC6)CC4)cccc3C2=O)C(=O)N1 (stereo partly drawn) [Cpd. No. 1, (3′R,4′S,5′R)-6″-chloro-4′-(3-chloro-2-fluorophenyl)-N-(4-((3-(4-((2-(2,6-dioxopiperidin-3-yl)-1-oxoisoindolin-4-yl)amino)piperidin-1-yl)propyl)carbamoyl)bicyclo[2.2.2]octan-1-yl)-2″-oxodispiro[cyclohexane-1,2′-pyrrolidine-3′,3″-indoline]-5′-carboxamide]	2.4 nM
CC(C)(C)C[C@@H]1N[C@@H](C(=O)N[C@H]2CC[C@H](C(=O)NCCCC#Cc3cccc4c3CN(C3CCC(=O)NC3=O)C4=O)CC2)[C@H](c2cccc(Cl)c2F)[C@]12C(=O)Nc1cc(Cl)ccc12 (stereo partly drawn) [Cpd. No. 3, (2′S,3R,4′S,5′R)-6-chloro-4′-(3-chloro-2-fluorophenyl)-N-((1r,4R)-4-((5-(2-(2,6-dioxopiperidin-3-yl)-1-oxoisoindolin-4-yl)pent-4-yn-1-yl)carbamoyl)cyclohexyl)-2′-neopentyl-2-oxospiro[indoline-3,3′-pyrrolidine]-5′-carboxamide]	0.62 nM
O=C1CCC(N2Cc3c(C#CC4CCN(C(=O)CN5CCC(NC(=O)[C@@H]6NC7(CCCCC7)[C@@]7(C(=O)Nc8cc(Cl)ccc87)[C@H]6c6cccc(Cl)c6F)CC5)CC4)cccc3C2=O)C(=O)N1 (stereo partly drawn) [Cpd. No. 5, (3′R,4′S,5′R)-6″-chloro-4′-(3-chloro-2-fluorophenyl)-N-(1-(2-(4-((2-(2,6-dioxopiperidin-3-yl)-1-oxoisoindolin-4-yl)ethynyl)piperidin-1-yl)-2-oxoethyl)piperidin-4-yl)-2″-oxodispiro[cyclohexane-1,2′-pyrrolidine-3′,3″-indoline]-5′-carboxamide]	3.1 nM
O=C1CCC(N2Cc3c(C#CC4CCN(C(=O)CN5CCN(C(=O)[C@@H]6NC7(CCCCC7)[C@@]7(C(=O)Nc8cc(Cl)ccc87)[C@H]6c6cccc(Cl)c6F)CC5)CC4)cccc3C2=O)C(=O)N1 (stereo partly drawn) [Cpd. No. 7, 3-(4-((1-(2-(4-((3′R,4′S,5′R)-6″-chloro-4′-(3-chloro-2-fluorophenyl)-2″-oxodispiro[cyclohexane-1,2′-pyrrolidine-3′,3″-indoline]-5′-carbonyl)piperazin-1-yl)acetyl)piperidin-4-yl)ethynyl)-1-oxoisoindolin-2-yl)piperidine-2,6-dione]	> 100 nM
CC1(C)CCC2(CC1)N[C@@H](C(=O)NC1CCN(CC(=O)NCCCC#Cc3cccc4c3CN(C3CCC(=O)NC3=O)C4=O)CC1)[C@H](c1cccc(Cl)c1F)[C@]21C(=O)Nc2cc(Cl)ccc21 (stereo partly drawn) [Cpd. No. 8, (3′R,4′S,5′R)-6″-chloro-4′-(3-chloro-2-fluorophenyl)-N-(1-(2-((5-(2-(2,6-dioxopiperidin-3-yl)-1-oxoisoindolin-4-yl)pent-4-yn-1-yl)amino)-2-oxoethyl)piperidin-4-yl)-4,4-dimethyl-2″-oxodispiro[cyclohexane-1,2′-pyrrolidine-3′,3″-indoline]-5′-carboxamide]	4.5 nM
CN1[C@@H](C(=O)N[C@H]2CC[C@H](C(=O)N3CCC(C#Cc4cccc5c4CN(C4CCC(=O)NC4=O)C5=O)CC3)CC2)[C@H](c2cccc(Cl)c2F)[C@]2(C(=O)Nc3cc(Cl)ccc32)C12CCCCC2 (stereo partly drawn) [Cpd. No. 9, (3′R,4′S,5′R)-6″-chloro-4′-(3-chloro-2-fluorophenyl)-N-((1r,4R)-4-(4-((2-(2,6-dioxopiperidin-3-yl)-1-oxoisoindolin-4-yl)ethynyl)piperidine-1-carbonyl)cyclohexyl)-1′-methyl-2″-oxodispiro[cyclohexane-1,2′-pyrrolidine-3′,3″-indoline]-5′-carboxamide]	2.8 nM

Continued, values first:

IC50	Structure (SMILES)
8 nM	CN1[C@@H](C(=O)NC23CCC(C(=O)N4CCC(C#Cc5cccc6c5CN(C5CCC(=O)NC5=O)C6=O)CC4)(CC2)CC3)[C@H](c2cccc(Cl)c2F)[C@]2(C(=O)Nc3cc(Cl)ccc32)C12CCCCC2 (stereo partly drawn) [Cpd. No. 10, (3′R,4′S,5′R)-6″-chloro-4′-(3-chloro-2-fluorophenyl)-N-(4-(4-((2-(2,6-dioxopiperidin-3-yl)-1-oxoisoindolin-4-yl)ethynyl)piperidine-1-carbonyl)bicyclo[2.2.2]octan-1-yl)-1 ′-methyl-2″-oxodispiro[cyclohexane-1,2′-pyrrolidine-3′,3″-indoline]-5′-carboxamide]
0.3 nM	O=C1CCC(N2Cc3c(C#CC4CCN(C(=O)C56CC(NC(=O)[C@@H]7NC8(CCCCC8)[C@@]8(C(=O)Nc9cc(Cl)ccc98)[C@H]7c7cccc(Cl)c7F)(C5)C6)CC4)cccc3C2=O)C(=O)N1 (stereo partly drawn) [Cpd. No. 11, (3′R,4′S,5′R)-6″-chloro-4′-(3-chloro-2-fluorophenyl)-N-(3-(4-((2-(2,6-dioxopiperidin-3-yl)-1-oxoisoindolin-4-yl)ethynyl)piperidine-1-carbonyl)bicyclo[1.1.1]pentan-1-yl)-2″-oxodispiro[cyclohexane-1,2′-pyrrolidine-3′,3″-indoline]-5′-carboxamide]
1.4 nM	O=C1CCC(N2Cc3c(C#CC4CCN(C(=O)[C@H]5C[C@H](NC(=O)[C@@H]6NC7(CCCCC7)[C@@]7(C(=O)Nc8cc(Cl)ccc87)[C@H]6c6cccc(Cl)c6F)C5)CC4)cccc3C2=O)C(=O)N1 (stereo partly drawn) [Cpd. No. 12, (3′R,4′S,5′R)-6″-chloro-4′-(3-chloro-2-fluorophenyl)-N-((1r,3R)-3-(4-((2-(2,6-dioxopiperidin-3-yl)-1-oxoisoindolin-4-yl)ethynyl)piperidine-1-carbonyl)cyclobutyl)-2″-oxodispiro[cyclohexane-1,2′-pyrrolidine-3′,3″-indoline]-5′-carboxamide]
6 nM	CC1(C)CCC2(CC1)N[C@@H](C(=O)NC13CCC(C(=O)N4CCC(C#Cc5cccc6c5CN(C5CCC(=O)NC5=O)C6=O)CC4)(CC1)CC3)[C@H](c1cccc(Cl)c1F)[C@]21C(=O)Nc2cc(Cl)ccc21 (stereo partly drawn) [Cpd. No. 13, (3′R,4′S,5′R)-6″-chloro-4′-(3-chloro-2-fluorophenyl)-N-(4-(4-((2-(2,6-dioxopiperidin-3-yl)-1-oxoisoindolin-4-yl)ethynyl)piperidine-1-carbonyl)bicyclo[2.2.2]octan-1-yl)-4,4-dimethyl-2″-oxodispiro[cyclohexane-1,2′-pyrrolidine-3′,3″-indoline]-5′-]
60 nM	CN(C(=O)[C@@H]1NC2(CCCCC2)[C@@]2(C(=O)Nc3cc(Cl)ccc32)[C@H]1c1cccc(Cl)c1F)[C@H]1CC[C@H](C(=O)N2CCC(C#Cc3cccc4c3CN(C3CCC(=O)NC3=O)C4=O)CC2)CC1 (stereo partly drawn) [Cpd. No. 15, (3′R,4′S,5′R)-6″-chloro-4′-(3-chloro-2-fluorophenyl)-N-((1r,4R)-4-(4-((2-(2,6-dioxopiperidin-3-yl)-1-oxoisoindolin-4-yl)ethynyl)piperidine-1-carbonyl)cyclohexyl)-N-methyl-2″-oxodispiro[cyclohexane-1,2′-pyrrolidine-3′,3″-indoline]-5′-carboxamide]
> 100 nM	CN1[C@@H](C(=O)N(C)[C@H]2CC[C@H](C(=O)N3CCC(C#Cc4cccc5c4CN(C4CCC(=O)NC4=O)C5=O)CC3)CC2)[C@H](c2cccc(Cl)c2F)[C@]2(C(=O)Nc3cc(Cl)ccc32)C12CCCCC2 (stereo partly drawn) [Cpd. No. 16, (3′R,4′S,5′R)-6″-chloro-4′-(3-chloro-2-fluorophenyl)-N-((1r,4R)-4-(4-((2-(2,6-dioxopiperidin-3-yl)-1-oxoisoindolin-4-yl)ethynyl)piperidine-1-carbonyl)cyclohexyl)-N,1′-dimethyl-2″-oxodispiro[cyclohexane-1,2′-pyrrolidine-3′,3″-indoline]-5′-carboxamide]

Reference: US20210309666A1, “SMALL MOLECULE MDM2 PROTEIN DEGRADERS” (THE REGENTS OF THE UNIVERSITY OF MICHIGAN, priority 2018, published 2021)
